One assay deals with NLRP3 inflammasome (Homo sapiens, UniProt Q96P20). The experiment in a line: NLRP3 inflammasome activation in THP1 macrophages (LPS priming, nigericin), IL-1β AlphaLISA. The class given is cell-based. The settings on record: PMA-differentiated THP1, LPS 20 ng/ml 3 hrs, compound 1 hr, Nigericin 6.7 uM 3 hrs, supernatant.
The test system of another assay is IL-6. Nature of the assay: IL-6 release from LPS-primed, nigericin-treated THP1 macrophages, Hu IL-6 AlphaLISA. The class given is cell-based. The settings on record: Homo sapiens, THP-1; PMA-differentiated THP1, LPS 20 ng/ml 3 hrs, compound 1 hr, Nigericin 6.7 uM 3 hrs, supernatant.

Sequence of NLRP3 inflammasome (Q96P20 whole entry): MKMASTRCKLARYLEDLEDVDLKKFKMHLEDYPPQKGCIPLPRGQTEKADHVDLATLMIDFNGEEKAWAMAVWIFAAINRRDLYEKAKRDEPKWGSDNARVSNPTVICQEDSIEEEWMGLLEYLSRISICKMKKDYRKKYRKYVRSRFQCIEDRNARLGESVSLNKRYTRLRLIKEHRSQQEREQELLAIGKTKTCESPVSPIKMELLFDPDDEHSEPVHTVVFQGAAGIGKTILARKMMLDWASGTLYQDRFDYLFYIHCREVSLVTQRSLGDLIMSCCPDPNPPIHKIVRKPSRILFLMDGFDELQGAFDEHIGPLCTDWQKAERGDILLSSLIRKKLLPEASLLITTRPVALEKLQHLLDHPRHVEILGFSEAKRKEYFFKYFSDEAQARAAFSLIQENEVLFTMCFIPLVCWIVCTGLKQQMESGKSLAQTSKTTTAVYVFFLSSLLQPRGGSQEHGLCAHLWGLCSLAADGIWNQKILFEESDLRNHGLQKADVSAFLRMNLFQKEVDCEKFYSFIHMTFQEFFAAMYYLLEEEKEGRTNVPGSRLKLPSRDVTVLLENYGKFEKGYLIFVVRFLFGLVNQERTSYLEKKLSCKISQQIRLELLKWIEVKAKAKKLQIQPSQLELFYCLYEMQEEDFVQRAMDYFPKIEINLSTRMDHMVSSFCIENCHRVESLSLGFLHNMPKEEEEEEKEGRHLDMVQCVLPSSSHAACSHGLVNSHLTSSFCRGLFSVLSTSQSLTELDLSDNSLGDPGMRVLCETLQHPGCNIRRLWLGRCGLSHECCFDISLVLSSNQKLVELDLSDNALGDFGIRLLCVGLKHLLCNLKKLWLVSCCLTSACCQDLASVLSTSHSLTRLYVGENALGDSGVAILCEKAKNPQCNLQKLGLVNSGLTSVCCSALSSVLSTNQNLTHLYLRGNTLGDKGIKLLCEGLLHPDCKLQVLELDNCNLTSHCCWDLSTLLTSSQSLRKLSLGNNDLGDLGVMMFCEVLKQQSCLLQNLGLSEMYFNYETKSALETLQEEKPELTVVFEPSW

Turning to `Cc1cccc(-c2nnc(N[C@@H]3CCCN(C)C3)cc2C)c1` [compound 44], the IC50 at NLRP3 inflammasome is 0.1 to 0.5 µM; in the assay on IL-6, > 10 µM.
The corresponding values for `Cc1cccc(C(F)F)c1-c1ccc(N[C@@H]2CCCN(C)C2)nn1` [compound 189] are > 1 µM and > 10 µM.
The corresponding values for `Cc1cc(-c2ccc(Cl)c(F)c2)nnc1N[C@@H]1CCCN(C)C1` [compound 147] are > 1 µM and 5 to 10 µM.
Regarding `Cc1cccc(-c2cc(C)c(N[C@@H]3CCCN(C)C3)nn2)c1` [compound 92], the IC50 was > 1 µM against NLRP3 inflammasome and > 10 µM in the assay with IL-6.
For `CCc1cc(-c2ccc(C(F)(F)F)cc2)nnc1N[C@@H]1CCCN(C)C1` [compound 30] the same measures were 0.1 to 0.5 µM and > 10 µM.
The corresponding values for `CCN1CCC[C@@H](Nc2nnc(-c3ccc(C(F)(F)F)cc3)cc2C)C1` [compound 24] are 0.1 to 0.5 µM and > 10 µM.
The corresponding values for `Cc1cc(N[C@@H]2CCCN(C)C2)nnc1-c1ccc(F)c(C#N)c1` [compound 108] are > 1 µM and > 10 µM.
Regarding `COc1cc(C(F)(F)F)cc(C)c1-c1ccc(N[C@@H]2CCCN(C)C2)nn1` [compound 75], the IC50 against NLRP3 inflammasome was > 1 µM; in the assay on IL-6 it was 5 to 10 µM.
`Cc1ccccc1-c1nnc(N[C@@H]2CCCN(C)C2)cc1C` [compound 87]: the IC50 against NLRP3 inflammasome was > 1 µM; with IL-6, > 10 µM.
For `CN1CCC[C@@H](Nc2nnc(-c3ccc(F)cc3)cc2C(F)(F)F)C1` [compound 148] the same measures were > 1 µM and > 10 µM.
Consider `Cc1cc(-c2ccc(C(F)(F)F)cc2C#N)nnc1N[C@@H]1CCCN(C)C1` [compound 72], for which the IC50 was 0.1 to 0.5 µM on NLRP3 inflammasome and > 10 µM in the assay on IL-6.
The corresponding values for `Cc1cc(O[C@@H]2CCCN(C)C2)nnc1-c1ccc(C(F)(F)F)cc1` [compound 177, (R)-4-methyl-6-((1-methylpiperidin-3-yl)oxy)-3-(4-(trifluoromethyl)phenyl)pyridazine] are 0.1 to 0.5 µM and > 10 µM.
The corresponding values for `CN1CCC[C@@H](Nc2nnc(-c3ccc(C(F)(F)F)cc3)cc2C(F)(F)F)C1` [compound 111] are > 1 µM and > 10 µM.
The corresponding values for `Cc1cc(F)ccc1-c1ccc(N[C@@H]2CCCN(C)C2)nn1` [compound 134] are 0.1 to 0.5 µM and > 10 µM.
`Cc1cc(N(C2CC2)[C@@H]2CCCN(C)C2)nnc1-c1ccc(C(F)(F)F)cc1` [compound 193]: the IC50 on NLRP3 inflammasome is ≤ 0.01 µM; with IL-6, 5 to 10 µM.
The corresponding values for `Cc1cc(N[C@@H]2CCCN(C)C2)nnc1-c1ccc(O)c(C)c1C(F)(F)F` [compound 76] are > 1 µM and 5 to 10 µM.
The corresponding values for `Cc1cc(-c2cccc(Cl)c2)nnc1N[C@@H]1CCCN(C)C1` [compound 77] are > 1 µM and 5 to 10 µM.
The corresponding values for `Cc1cc(C(F)(F)F)ccc1-c1nnc(N[C@@H]2CCCN(C)C2)cc1C` [compound 9] are 0.01 to 0.05 µM and 1 to 5 µM.
For the molecule `Cc1cc(-c2cccc(C(F)(F)F)c2)nnc1N[C@@H]1CCCN(C)C1` [compound 47], the IC50 is > 1 µM against NLRP3 inflammasome and > 10 µM in the assay with IL-6.
The corresponding values for `Cc1cc(-c2ccc(C(F)(F)F)c(C#N)c2)nnc1N[C@@H]1CCCN(C)C1` [compound 113] are > 1 µM and > 10 µM.
For `CCN1CCC[C@@H](Nc2cc(C)c(-c3ccc(C(F)(F)F)cc3)nn2)C1` [compound 1] the same measures were ≤ 0.01 µM and > 10 µM.
The corresponding values for `Cc1cc(N[C@@H]2CCCN(CC3CC3)C2)nnc1-c1ccc(C(F)(F)F)cc1` [compound 66] are ≤ 0.01 µM and > 10 µM.
For `COc1cc(-c2ccc(C(F)(F)F)cc2)nnc1N[C@@H]1CCCN(C)C1` [compound 102], the IC50 on NLRP3 inflammasome was > 1 µM; in the assay on IL-6, > 10 µM.
In the case of `Cc1cc(C(F)F)ccc1-c1ccc(N[C@@H]2CCCN(C)C2)nn1` [compound 199], the IC50 is 0.05 to 0.1 µM against NLRP3 inflammasome and > 10 µM with IL-6.
Regarding `Cc1cc(Cl)ccc1-c1nnc(O[C@@H]2CCCN(C)C2)cc1C` [compound 181], the IC50 against NLRP3 inflammasome is 0.5 to 1 µM; in the assay on IL-6 it was ≤ 1 µM.
The corresponding values for `Cc1cc(N[C@@H]2CCCN(C)C2)nnc1-c1ccccc1C#N` [compound 89] are > 1 µM and > 10 µM.
The corresponding values for `Cc1cc(C(F)(F)F)ccc1-c1cc(O)c(N[C@@H]2CCCN(C)C2)nn1` [compound 158] are 0.1 to 0.5 µM and 5 to 10 µM.
The corresponding values for `Cc1cc(N[C@@H]2CCCN(C)C2)nnc1-c1ccc(Cl)cc1` [compound 127] are ≤ 0.01 µM and > 10 µM.
Take `Cc1cc(-c2cc(C)c(N[C@@H]3CCCN(C)C3)nn2)ccc1C(F)(F)F` [compound 100]: the 50% inhibitory concentration (IC50) on NLRP3 inflammasome is > 1 µM; with IL-6 it was > 10 µM.
For `CN1CCC[C@@H](Nc2ccc(-c3ccc(F)cc3)nn2)C1` [compound 126] the same measures were > 1 µM and > 10 µM.
The corresponding values for `COc1cc(C(F)(F)F)ccc1-c1nnc(N[C@@H]2CCCN(C)C2)cc1C` [compound 8] are 0.01 to 0.05 µM and > 10 µM.
For `Cc1cc(-c2ccc(Cl)cc2C(F)(F)F)nnc1N[C@@H]1CCCN(C)C1` [compound 170] the same measures were 0.01 to 0.05 µM and > 10 µM.
Turning to `Cc1cc(-c2ccc(C(F)(F)F)cc2F)nnc1N[C@@H]1CCCN(C)C1` [compound 29], the IC50 against NLRP3 inflammasome is 0.1 to 0.5 µM; with IL-6, > 10 µM.
Consider `Cc1cc(-c2ccc(Cl)cc2C#N)nnc1N[C@@H]1CCCN(C)C1` [compound 173], for which the IC50 against NLRP3 inflammasome is > 1 µM; in the assay on IL-6, > 10 µM.
The corresponding values for `CN1CCC[C@@H](Nc2cc(C(F)(F)F)c(-c3ccc(Cl)cc3)nn2)C1` [compound 194] are ≤ 0.01 µM and > 10 µM.
For `Cc1cc(N[C@@H]2CCCN(C)C2)nnc1-c1cccc(C(C)C)c1` [compound 37] the same measures were 0.5 to 1 µM and > 10 µM.
For `Cc1cc(N[C@@H]2CCCN(CC(F)(F)F)C2)nnc1-c1ccc(F)cc1` [compound 115] the same measures were > 1 µM and 5 to 10 µM.
Turning to `Cc1cc(C(F)(F)F)ccc1-c1ccc(N[C@@H]2CCCN(C)C2)nn1` [compound 19], the IC50 against NLRP3 inflammasome is 0.1 to 0.5 µM; in the assay on IL-6, 5 to 10 µM.
The corresponding values for `Cc1cc(N(C)[C@@H]2CCCN(C)C2)nnc1-c1ccc(C(F)(F)F)cc1` [compound 142, (R)—N,5-dimethyl-N-(1-methylpiperidin-3-yl)-6-(4-(trifluoromethyl)phenyl)pyridazin-3-amine] are 0.1 to 0.5 µM and 1 to 5 µM.
For `Cc1cc(-c2ccc(F)cc2F)nnc1N[C@@H]1CCCN(C)C1` [compound 98] the same measures were > 1 µM and > 10 µM.
For `Cc1cc(N(C)[C@@H]2CCCN(C)C2)nnc1-c1ccc(Cl)cc1` [compound 202] the same measures were 0.1 to 0.5 µM and > 10 µM.
With `CN1CCC[C@@H](Nc2nnc(-c3ccc(C(F)(F)F)cc3)cc2C#N)C1` [compound 103], the IC50 against NLRP3 inflammasome was > 1 µM; with IL-6, > 10 µM.

The values are drawn from patent publication US20250074888A1, “PYRIDAZINE DERIVATIVES AS MODULATORS OF NLRP3 INFLAMMASOME AND RELATED METHODS” (Neumora Therapeutics, Inc., priority 2021, published 2025).
